Assay results taken from ChEMBL document CHEMBL2331263, “Non-benzimidazole containing inhibitors of respiratory syncytial virus” (Bioorg Med Chem Lett, 2013).

Assays:
[1] = Octanol-neutral buffer partition co-efficient, log D of the compound at pH 7.4
[2] = Apparent intrinsic clearance in human liver microsomes
[3] = system: Respiratory syncytial virus; assay: Antiviral activity against Respiratory syncytial virus A2 infected in A549 cells after 3 days by CelltitreGlo assay; format: functional, organism-based; conditions: human respiratory syncytial virus, A2, A549, 72 h
[4] = Apparent permeability in MDCK cells selected for low expression of efflux transporters; conditions: dog
[5] = Apparent permeability in dog RRCK cells; conditions: MDCK
[6] = system: Hepatocyte; assay: Apparent intrinsic clearance in human hepatocytes assessed per million cells
[7] = system: Liver microsomes; assay: Apparent intrinsic clearance in rat liver microsomes assessed per mg protein
[8] = Oral absorption in rat; format: ADME, organism-based; conditions: in vivo
[9] = Drug excretion in rat urine; format: ADME; conditions: read-out: Drug excretion
[10] = Half life in iv dosed rat; conditions: in vivo
[11] = Volume of distribution in steady state in rat; conditions: in vivo
[12] = Oral bioavailability in rat; conditions: in vivo
[13] = Intrinsic clearance in rat plasma
[14] = Apparent intrinsic clearance in rat liver microsomes; format: ADME, Microsome; conditions: read-out: CLH(app)

SMILES	logD [1]	microsomal CLint [2] [µL/min/mg]	IC50 [3] [nM]	Papp [4] [×10⁻⁶ cm/s]	other results
Cc1nnc(-c2cn(CCCCO)c(Cn3c(=O)n(C4CC4)c4ccncc43)n2)s1	0.9	< 8	5110		
Cc1cc(CCn2cc(-c3cccnc3)nc2Cn2c(=O)n(C3CC3)c3ccncc32)no1	1.4	17	139	4	
Cn1ccnc1-c1cn(CCCCO)c(Cn2c(=O)n(C3CC3)c3ccncc32)n1	0.8	< 8	10400		
O=c1n(Cc2nc3ccccc3n2CCCCO)c2cnccc2n1C1CC1			13		
Cn1nccc1-c1cn(CCCCO)c(Cn2c(=O)n(C3CC3)c3ccncc32)n1	0.9	< 8	> 20000		
COC(=O)N1CCC(n2c(=O)n(Cc3nc(C)c(C)n3CCCCO)c3cnccc32)CC1	-0.5	15	55		Papp [5]: 1 ×10⁻⁶ cm/s
COC(=O)c1nc(Cn2c(=O)n(C3CC3)c3ccncc32)n(CCCCO)c1C	0.8	9	12400		Papp [5]: 2 ×10⁻⁶ cm/s
Cc1ccc(CCn2cc(-c3cccnc3)nc2Cn2c(=O)n(C3CC3)c3ccncc32)cn1	1.5	32	96	2	
CC(C)n1nc(Cn2nc3c(c2CCCCO)CCCC3)c2ccccc21	3.6	> 320	409	12	
CC(=O)N1CCC(Cn2nc3ccccc3c2CCCCO)CC1	1.5	11	> 20000		Papp [5]: 2 ×10⁻⁶ cm/s
O=c1n(Cc2nc(-c3ncccn3)cn2CCCCO)c2cnccc2n1C1CC1	0.6	< 8	235	1	CLH(app) [6]: < 2.2 µL/min
CC(C)n1nc(CCn2nc(CCCCO)c3ccccc32)c2cnccc21	4.4	242	22700	8	
O=c1n(Cc2nc(-c3ncco3)cn2CCCCO)c2cnccc2n1C1CC1	0.6	< 8	95		
CC(C)n1nc(Cn2nc3ccccc3c2OCCCO)c2ccccc21	3.5	246	992	16	
O=c1n(Cc2nc3c(n2CCCCO)CCCC3)c2cnccc2n1C1CC1	1.8	65	4		Papp [5]: 4 ×10⁻⁶ cm/s
COC(=O)N1CCC(n2ccc(Cc3nc4ccccc4n3CCCCO)n2)CC1	2	110	> 14100		Papp [5]: 6 ×10⁻⁶ cm/s
O=c1n(Cc2nc(Cl)c(Cl)n2CCCCO)c2cnccc2n1C1CC1	2	< 8	109		
COCc1cn(CCCCO)c(Cn2c(=O)n(C3CC3)c3ccncc32)n1	0.2	9	6090		Papp [5]: 1 ×10⁻⁶ cm/s
CC(C)n1nc(Cn2nc3ccccc3c2OCCCCO)c2ccccc21	3.9		65		
O=c1n(Cc2nc(-c3nccs3)cn2CCCCO)c2cnccc2n1C1CC1	1.3	< 8	58	4	CLH(app) [7]: 21.1 µL/min; Fa [8]: > 60%; dose excreted [9]: 16%; Papp [5]: 4 ×10⁻⁶ cm/s; half-life [10]: 90 min; Vd [11]: 3.5 L/kg; bioavailability [12]: 34%; CLint scaled [13]: 48 mL/min/kg; CLH(app) [6]: < 2.2 µL/min
CC(C)n1nc(Cn2nc3ccccc3c2CCCO)c2ccccc21	3.8	78	277	14	
CC(C)n1nc(Cn2nc3ccccc3c2CCCCO)c2ccccc21	4.4		219		
Cc1ncc(CCn2cc(-c3cccnc3)nc2Cn2c(=O)n(C3CC3)c3ccncc32)o1	0.9	10	2230		
CC(C)n1nc(Cn2nc3ccccc3c2C(=O)NCCCO)c2ccccc21	2.4		2930		
O=c1n(Cc2nc(-c3ccccn3)cn2CCCCO)c2cnccc2n1C1CC1	1.4	< 8	233	5	CLH(app) [6]: < 2.2 µL/min
Cc1cc(CCn2cc(-c3cccnc3)nc2Cn2c(=O)n(C3CC3)c3ccncc32)on1	1.4		41	3	
CC(C)n1nc(Cn2c(=O)c3ccccc3n2CCCCO)c2ccccc21	2.9	462	169	32	
O=c1n(Cc2nc(-c3cccnc3)cn2CCCCO)c2cnccc2n1C1CC1	1.2	< 8	265	4	microsomal CLint [14]: 44 µL/min/mg; CLint scaled [13]: 95 mL/min/kg; CLH(app) [6]: < 2.2 µL/min
COC(=O)N1CCC(n2c(=O)n(Cc3nc4ccccc4n3CCCCO)c3ccccc32)CC1	3.4	44	0.5		Papp [5]: 36 ×10⁻⁶ cm/s
